Data as given in US8541670B2, “Compositions and methods for inhibiting tumor cell growth” (priority 2007, dated 2013).
Where no end group is shown, it is not given here.

How the values were obtained:
AKT = molecular target: T1, AKT (Homo sapiens, UniProt P31749); experiment: Screen of PKAc peptide library for effect on catalytic activity of AKT; assay type: biochemical; settings: single peptide
T1 construct: purchased Upstate Biotechnology
Description: Unlike PKAc and protein kinase C (PKC) for which potent inhibitor peptides are readily available and widely used, inhibitors of AKT are generally lacking (Brazil, et al. (2004) supra). […] Moreover, optimal substrate motifs for AKT have been modified to design AKT inhibitors (Obata, et al. (2000) J. Biol. Chem. 275:36108-36115). Because the full-length PKAc protein inhibited the catalytic activity of AKT, a peptide library based on the human (GENBANK Accession No. NP_002721; SEQ ID NO:1) and bovine (GENBANK Accession No. CAA47627; SEQ ID NO:2) PKAc protein sequences was designed and synthesized. This library contained 96 overlapping peptides (Table 1), covering the full-length protein sequence of human and bovine PKAc from the N- to C-terminus. The library was extensively screened to identify fragments of PKAc that mediated the inhibitory effect of PKAc toward AKT.
These peptides included peptide 49 (SEQ ID NO:56), 53 (SEQ ID NO:60), 62 (SEQ ID NO:69), 63 (SEQ ID NO:70) and 64 (SEQ ID NO:71). Combinations of consecutive overlapping peptide fragments were also assayed for an effect on the catalytic activity of AKT. A significant inhibitory effect was also observed when peptides 25 through 36 were combined (i.e., SEQ ID NOs:32-43), peptides 37 through 48 were combined (i.e., SEQ ID NOs:44-55), peptides 49 through 60 were combined (i.e., SEQ ID NOs:56-67), and peptides 61 through 72 were combined (i.e., SEQ ID NOs:68-79).

N2a cells = experiment: MTT cell proliferation assay; assay type: cell-based
Description: In histogram series 2, treatments were removed after 24 hours and cells were incubated for another 24 hours without treatment. […] Mitochondrial activity (reflecting cellular growth and viability) in the presence of ZaTa and ZaTa variants (ZaTa T10D, ZaTa T8D, ZaTa T14R, and ZaTa Y17T) was evaluated by measuring the optical density (“OD”) at 490 nm on a plate reader. ZaTa T10D refers to a ZaTa polypeptide variant in which the Threonine (T) at position 10 of SEQ ID NO: 60 is substituted by an Aspartic Acid (D). ZaTa T8D refers to a ZaTa polypeptide variant in which the Threonine (T) at position 8 of SEQ ID NO: 60 is substituted by an Aspartic Acid (D). ZaTa T14R refers to a ZaTa polypeptide variant in which the Threonine (T) at position 14 of SEQ ID NO: 60 is substituted by an Arginine (R). ZaTa Y17T refers to a ZaTa polypeptide variant in which the Tyrosine (Y) at position 17 of SEQ ID NO: 60 is substituted by an Threonine (T).
AKT affects a network that positively regulates G1/S cell cycle progression through several mechanisms that involve the expression and subcellular localization of the CDK inhibitor p27^Kip1 (Blain and Massague (2002) Nat. Med. 8:1076-1078; Liang, et al. (2002) supra; Shin, et al. (2002) supra; Viglietto, et al. (2002) supra). Based on these studies, the effect of ZaTa peptide on cell proliferation was assessed. […] Capturing live images of cultured N2a cells in the presence of different concentrations of the ZaTa peptide confirmed an obvious reduction in the number of dividing cells.
Based on the importance of the C-terminal arm of ZaTa for its inhibitory action on AKT, it was determined whether the free hydroxyl groups on residues Thr-8, Thr-10 (equivalent to Thr-197 in full-length PKAc), Thr-14 and Tyr-17 were important for the biological activity of this peptide. Mutants of ZaTa peptide were synthesized by replacing Thr-8 or Thr-10 residues with Asp (ZaTa^T8D and ZaTa^T10D, respectively) as an amino acid with a negatively charged side chain. Mutants of ZaTa with the hydrophilic positively charged amino acid Arg at either position Thr-14 or Tyr-17 (ZaTa^T14R and ZaTa^Y17R, respectively) were also synthesized. […] The inhibitory effect of ZaTa peptide on cell proliferation was reversible, to a large extent, after the removal of ZaTa treatment (FIG. 3, histogram series 2).
Cells (5×10^3) were incubated in 96-well plates in the presence of different concentrations of the ZaTa peptide, control peptide or DMSO as vehicle. Media was removed at different time intervals and replaced with media containing MTT (5 mg/mL), and incubated for one hour at 37° C. […] The activity of the mitochondria, reflecting cellular growth and viability, was evaluated by measuring the optical density at 490 nm on a plate reader.

T1 sequence (P31749 whole entry): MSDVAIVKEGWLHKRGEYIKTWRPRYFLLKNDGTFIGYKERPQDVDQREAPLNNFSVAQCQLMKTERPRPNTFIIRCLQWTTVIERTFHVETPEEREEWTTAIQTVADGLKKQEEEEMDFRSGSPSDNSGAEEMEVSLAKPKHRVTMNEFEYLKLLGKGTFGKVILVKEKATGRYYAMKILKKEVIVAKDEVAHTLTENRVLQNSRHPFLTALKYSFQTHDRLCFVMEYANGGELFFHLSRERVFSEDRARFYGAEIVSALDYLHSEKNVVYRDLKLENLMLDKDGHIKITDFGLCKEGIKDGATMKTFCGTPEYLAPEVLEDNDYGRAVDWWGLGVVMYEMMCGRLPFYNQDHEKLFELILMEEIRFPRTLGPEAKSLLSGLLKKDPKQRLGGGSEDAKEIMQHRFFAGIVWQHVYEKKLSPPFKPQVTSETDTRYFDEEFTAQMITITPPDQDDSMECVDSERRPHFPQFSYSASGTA

In the case of AKRVKGRTWTLCGTPEY [ZaTa], the “inhibitory effect toward AKT, individual library peptides” value (AKT) is reported as “significant inhibitory effects”, the “dose causing significant decrease in the number of live cells (as low as)” value (N2a cells) is reported as 2 µM and the “number of live cells 24 hours after removal of treatment versus DMSO vehicle” value (N2a cells; 10 μM, 24 hours treatment then 24 hours without) is reported as “no significant differences”. The “number of live cells, MTT” value (N2a cells; different concentrations) was “dose-dependent decrease in the number of live cells”.
